Ki data for one compound are collected here from BindingDB's records for doi:10.1111/j.1476-5381.1995.tb15071.x (Vrije Universiteit, 1995).

One may read the Ki as a dissociation constant, usually derived from enzyme kinetics or from competition with a known ligand. Low values mean tighter binding, high ones weaker binding.

Structures are written as SMILES.

This assay has as its target Sodium-dependent serotonin transporter (Cavia porcellus, UniProt O35899).

Sequence of Sodium-dependent serotonin transporter (O35899 whole entry): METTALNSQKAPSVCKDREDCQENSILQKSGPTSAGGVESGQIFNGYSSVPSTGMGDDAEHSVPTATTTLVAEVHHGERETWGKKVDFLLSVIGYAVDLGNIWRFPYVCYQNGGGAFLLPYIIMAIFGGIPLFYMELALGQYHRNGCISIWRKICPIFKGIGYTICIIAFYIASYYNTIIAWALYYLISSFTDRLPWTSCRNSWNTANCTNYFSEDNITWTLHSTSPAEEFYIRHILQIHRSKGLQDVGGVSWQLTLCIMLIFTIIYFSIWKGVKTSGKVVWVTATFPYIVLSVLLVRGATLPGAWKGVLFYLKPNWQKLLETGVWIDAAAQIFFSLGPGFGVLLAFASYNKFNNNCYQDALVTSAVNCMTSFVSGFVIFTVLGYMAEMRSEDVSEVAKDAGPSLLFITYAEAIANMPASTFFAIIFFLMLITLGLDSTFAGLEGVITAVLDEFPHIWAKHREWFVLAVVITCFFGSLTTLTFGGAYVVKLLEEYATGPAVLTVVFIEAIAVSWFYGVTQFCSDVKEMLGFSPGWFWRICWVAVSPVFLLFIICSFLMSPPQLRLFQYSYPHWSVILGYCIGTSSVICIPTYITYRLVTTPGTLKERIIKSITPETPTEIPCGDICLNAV

In the case of `S=C(NC1CCCCC1)N1CCC(c2cnc[nH]2)CC1`, the inhibition constant Ki is above 10 µM.
